Tests used:
moulds = test: Mould spoilage of sliced bread over shelf life; type: cell-based; details: 12 ppm on flour weight; normal shelf life period
Experimental: (§1) A bread is made by preparing a dough containing flour, water, yeast, salt and a dough conditioner. Included in the dough mix is either natamycin or encapsulated natamycin or neither. […] All ingredients are mixed together thoroughly for between 3 and 10 minutes.
When the bread is cool, the natamycin content in the bread is assayed. The natamycin content from bread containing encapsulated natamycin is higher than that in the bread containing unencapsulated natamycin, indicating the heat protective benefit of encapsulated natamycin. The bread is then sliced and observed over the normal shelf life period for growth of moulds.

[1] = system: common food spoilage yeasts and moulds; details: cited from earlier work
yeast = test: Leavening of bread dough containing natamycin; type: cell-based; details: 12 ppm on flour weight; about 50 minutes, 85% relative humidity, 40° C.
Experimental: as §1
The dough is then given a short resting period after mixing (approx. 5 to 10 minutes) followed by scaling at the required weight. A second rest period is then applied following a second moulding in shape the dough as desired. The dough is then placed into a tin or tray. A leavening period for about 50 minutes at 85% relative humidity at 40° C. then follows.

[2] = reportedly; or more; cited from earlier work
[3] = Davies et al. 1998; cited from earlier work

| Compound | Mould spoilage / extension of shelf life of sliced bread (moulds) | Concentrations inhibiting most strains [1] | Leavening of bread dough (yeast) | Effective levels to preserve foodstuffs [2] | pH of optimum stability [3] |
| --- | --- | --- | --- | --- | --- |
| C[C@@H]1C/C=C/C=C/C=C/C=C/[C@H](O[C@@H]2O[C@H](C)[C@@H](O)[C@H](N)[C@@H]2O)C[C@@H]2O[C@](O)(C[C@@H](O)C[C@H]3O[C@@H]3/C=C/C(=O)O1)C[C@H](O)[C@H]2C(=O)O [natamycin] | Delay of mould spoilage is observed | 1-15 ppm | poor leavening |  |  |
| nisin (ITSISLCTPGCKTGALMGCNMKTATCHCSIHVSK; Lantibiotic nisin-A; UniProt P13068 24-57, looked up) [polypeptide bacteriocin produced by the lactic acid bacteria, Lactococcus lactis subsp. lactis] |  |  |  | 25-500 IU/g | 3 |
